Experimental data as given in article PMC6733504, “Effects of flavoring compounds used in electronic cigarette refill liquids on endothelial and vascular function” (PLoS ONE, 2019).
Like-named read-outs stand apart in the source and are kept apart here.

Key:
[1] = molecular target: T1, soluble guanylate cyclase (sGC) (Bos taurus, UniProt P16068+P19687); test: Activity of purified sGC stimulated with DEA/NO; format: biochemical, bovine; details: for Emax of DEA/NO-stimulated sGC activity in presence of flavoring: flavoring 1 mM, DEA/NO 0.01–10 μM
T1 construct: The activity of sGC purified from bovine lung; from tissue; host or cells: bovine lung
T1 sequence (P19687 1-691): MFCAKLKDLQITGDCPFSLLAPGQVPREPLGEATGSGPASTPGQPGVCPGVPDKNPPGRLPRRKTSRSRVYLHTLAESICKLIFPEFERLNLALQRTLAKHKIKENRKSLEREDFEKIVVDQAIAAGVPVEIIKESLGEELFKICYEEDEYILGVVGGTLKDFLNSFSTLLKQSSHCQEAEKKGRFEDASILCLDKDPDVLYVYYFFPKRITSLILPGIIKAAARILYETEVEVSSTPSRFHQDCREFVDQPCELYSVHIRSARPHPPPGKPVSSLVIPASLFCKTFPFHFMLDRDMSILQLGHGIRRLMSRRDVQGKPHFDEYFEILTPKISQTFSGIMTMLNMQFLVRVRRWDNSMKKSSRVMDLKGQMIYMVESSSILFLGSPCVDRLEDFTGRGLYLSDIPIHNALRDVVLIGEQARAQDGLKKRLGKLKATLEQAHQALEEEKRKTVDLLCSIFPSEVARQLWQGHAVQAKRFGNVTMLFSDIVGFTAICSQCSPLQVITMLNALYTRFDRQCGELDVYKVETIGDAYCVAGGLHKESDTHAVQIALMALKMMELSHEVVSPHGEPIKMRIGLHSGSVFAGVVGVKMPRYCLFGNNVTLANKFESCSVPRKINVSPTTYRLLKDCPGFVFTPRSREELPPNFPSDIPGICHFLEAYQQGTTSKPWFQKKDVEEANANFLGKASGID
T1 sequence (P16068 1-619): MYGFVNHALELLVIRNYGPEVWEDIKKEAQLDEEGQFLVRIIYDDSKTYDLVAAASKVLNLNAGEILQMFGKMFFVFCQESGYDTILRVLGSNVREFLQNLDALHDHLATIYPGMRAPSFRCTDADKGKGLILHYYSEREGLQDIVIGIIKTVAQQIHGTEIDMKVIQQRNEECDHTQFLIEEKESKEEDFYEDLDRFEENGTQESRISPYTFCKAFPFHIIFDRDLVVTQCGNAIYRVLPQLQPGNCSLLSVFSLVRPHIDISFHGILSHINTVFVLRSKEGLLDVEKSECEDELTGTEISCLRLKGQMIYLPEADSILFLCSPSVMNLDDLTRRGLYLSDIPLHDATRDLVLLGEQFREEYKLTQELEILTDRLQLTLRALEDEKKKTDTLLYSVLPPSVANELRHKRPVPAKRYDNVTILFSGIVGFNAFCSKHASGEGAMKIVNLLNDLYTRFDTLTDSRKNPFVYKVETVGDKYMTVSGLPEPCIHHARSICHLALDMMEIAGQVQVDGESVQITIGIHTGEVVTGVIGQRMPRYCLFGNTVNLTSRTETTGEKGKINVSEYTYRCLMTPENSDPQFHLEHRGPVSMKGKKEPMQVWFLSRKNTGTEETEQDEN
Procedure: The activity of sGC purified from bovine lung was determined as formation of [^32P]cGMP from [α-^32P]GTP. The purified enzyme (50 ng) was incubated at 37°C for 10 min in a final volume of 0.1 ml in the absence or presence of flavorings with the NO donor DEA/NO at concentrations indicated in the figure legends, followed by isolation of [^32P]cGMP and quantification of radioactivity (Cerenkov radiation) in a β counter.
To test for reversibility of inhibition, sGC (50 ng) was preincubated in the absence or presence of the respective compounds for 5 minutes at 37°C, followed by 50-fold dilution in the assay mixtures and incubation with DEA/NO at 37°C for 10 minutes.

[2] = tested on: Porcine aortic endothelial cells (endogenous NO/cGMP pathway); test: A23187 (Ca2+ ionophore)-induced endothelial cGMP formation; format: cell-based
Procedure: (§1) Porcine aortic endothelial cells were isolated as described and cultured at 37°C, 5% CO2 for up to 3 passages in Dulbecco´s modified Eagle´s medium, containing 10% heat-inactivated fetal calf serum (FCS), 100 U/ml penicillin, 0.1 mg/ml streptomycin, and 1.25 μg/ml amphotericin B. Prior to experiments, cells were subcultured into 24-well plates (determination of cGMP formation) or 6-well plates (determination of L-citrulline formation).
Accumulation of intracellular 3',5'-cyclic GMP (cGMP) was determined as previously described. Briefly, endothelial cells were washed and preincubated with the compounds to be tested for 15 minutes at 37°C in 50 mM Tris buffer, pH 7.4, containing 100 mM NaCl, 5 mM KCl, 1 mM MgCl2, 2.5 mM CaCl2, 1 mM 3-isobutyl-1-methylxanthine, and 1 μM indomethacin. Reactions were started by addition of the Ca^2+ ionophore A 23187 (final concentration 1 μM) or the NO donor DEA/NO (final concentration 1 μM) and terminated after 4 minutes by removal of the incubation medium and addition of 0.01 M HCl. Within 1 h, intracellular cGMP was completely released into the supernatant and measured by radioimmunoassay.

[3] = tested on: Porcine aortic endothelial cells (endothelial sGC); test: DEA/NO-induced endothelial cGMP formation; format: cell-based; details: for DEA/NO-stimulated endothelial cGMP formation: 1 mM
Procedure: as §1
Accumulation of intracellular 3',5'-cyclic GMP (cGMP) was determined as previously described. […] Reactions were started by addition of the Ca^2+ ionophore A 23187 (final concentration 1 μM) or the NO donor DEA/NO (final concentration 1 μM) and terminated after 4 minutes by removal of the incubation medium and addition of 0.01 M HCl. Within 1 h, intracellular cGMP was completely released into the supernatant and measured by radioimmunoassay.

[4] = Electrochemical determination of NO released from DEA/NO (NO scavenging); details: DEA/NO 1 μM
Procedure: Scavenging of NO by flavoring compounds was studied with a nitric oxide sensor (ISO-NOP, World Precision Instruments, Berlin, Germany), calibrated with acidified nitrite as described previously. Free NO radical was generated by incubation of DEA/NO (1 μM) in 1 ml of 100 mM phosphate buffer, pH 7.4, in the absence or presence of superoxide dismutase (2500 U/ml) at ambient temperature. At the peak concentration of NO, flavoring compounds (10 μl of DSMO stock solutions) were added, DMSO served as vehicle control.

[5] = Estimated plasma concentration upon inhalation of cinnamaldehyde-containing aerosol; parameters: species or system human; details: 10 ml of 6.9 mM liquid, plasma volume 3 liters, 100% bioavailability, no distribution, metabolism or clearance
[6] = tested on: endothelial cells; details: pig, 1 h, 1 mM
[7] = rats, cited from earlier work

Compound | Emax of DEA/NO-stimulated sGC activity in presence of flavoring [1] [µmol cGMP x min-1 x mg-1] | Concentration inhibiting Ca2+-stimulated endothelial cGMP accumulation [2] [mM] | A23187-induced cGMP formation ([2]; flavoring 1 mM, 15 min preincubation, 1 μM A23187 for 4 min (Fig 1A)) | DEA/NO-stimulated endothelial cGMP formation ([3]; incubation for 15 minutes (Fig 2B)) | DEA/NO-stimulated endothelial cGMP formation ([3]; incubation for 75 minutes (Fig 2B)) | DEA/NO-induced cGMP formation ([3]; flavoring 1 mM, 15 min preincubation, 1 μM DEA/NO for 4 min (Fig 1B)) | IC50 ([1]; DEA/NO 0.05 μM, 95% CI) [µM] | Reversal of sGC inhibition by 50-fold dilution ([1]; enzyme pre-incubated 5 minutes with 1 mM) | Effect on recorded NO signal (NO scavenging) ([4]; 1 mM) | Effect on recorded NO signal (NO scavenging) ([4]; 10 mM) | Estimated plasma concentration [5] [µM] | LDH release (% of maximum) [6] | Maximal plasma concentration ([7]; intravenous bolus 25 mg/kg) [µM] | Maximal plasma concentration ([7]; oral 500 mg/kg)
C=CCc1ccc(O)c(OC)c1 [Eugenol, 2-Methoxy-4-(prop-2-en-1-yl)phenol] | 28±1.1 |  |  |  |  |  |  |  |  |  |  |  |  | 
O=C/C=C/c1ccccc1 [Cinnamaldehyde, (2E)-3-Phenylprop-2-enal] | 24±0.8 | ≥ 0.3 | about 35 % of controls | 25.3±3.9 % of controls | 10.4±2.4 % of controls | about 35 % of controls | 560 | largely | only moderate effects | pronounced decrease | 23 | 1.8±0.50 % of maximum | 20 | about 2 μM
